The compounds below were run against NACHT, LRR and PYD domains-containing protein 3 (Homo sapiens, UniProt Q96P20) (assay: Evaluation of NLRP3 Inflammasome Inhibitory Activity Assay).
NACHT, LRR and PYD domains-containing protein 3, sequence (Q96P20 whole entry, the tested form may be a part): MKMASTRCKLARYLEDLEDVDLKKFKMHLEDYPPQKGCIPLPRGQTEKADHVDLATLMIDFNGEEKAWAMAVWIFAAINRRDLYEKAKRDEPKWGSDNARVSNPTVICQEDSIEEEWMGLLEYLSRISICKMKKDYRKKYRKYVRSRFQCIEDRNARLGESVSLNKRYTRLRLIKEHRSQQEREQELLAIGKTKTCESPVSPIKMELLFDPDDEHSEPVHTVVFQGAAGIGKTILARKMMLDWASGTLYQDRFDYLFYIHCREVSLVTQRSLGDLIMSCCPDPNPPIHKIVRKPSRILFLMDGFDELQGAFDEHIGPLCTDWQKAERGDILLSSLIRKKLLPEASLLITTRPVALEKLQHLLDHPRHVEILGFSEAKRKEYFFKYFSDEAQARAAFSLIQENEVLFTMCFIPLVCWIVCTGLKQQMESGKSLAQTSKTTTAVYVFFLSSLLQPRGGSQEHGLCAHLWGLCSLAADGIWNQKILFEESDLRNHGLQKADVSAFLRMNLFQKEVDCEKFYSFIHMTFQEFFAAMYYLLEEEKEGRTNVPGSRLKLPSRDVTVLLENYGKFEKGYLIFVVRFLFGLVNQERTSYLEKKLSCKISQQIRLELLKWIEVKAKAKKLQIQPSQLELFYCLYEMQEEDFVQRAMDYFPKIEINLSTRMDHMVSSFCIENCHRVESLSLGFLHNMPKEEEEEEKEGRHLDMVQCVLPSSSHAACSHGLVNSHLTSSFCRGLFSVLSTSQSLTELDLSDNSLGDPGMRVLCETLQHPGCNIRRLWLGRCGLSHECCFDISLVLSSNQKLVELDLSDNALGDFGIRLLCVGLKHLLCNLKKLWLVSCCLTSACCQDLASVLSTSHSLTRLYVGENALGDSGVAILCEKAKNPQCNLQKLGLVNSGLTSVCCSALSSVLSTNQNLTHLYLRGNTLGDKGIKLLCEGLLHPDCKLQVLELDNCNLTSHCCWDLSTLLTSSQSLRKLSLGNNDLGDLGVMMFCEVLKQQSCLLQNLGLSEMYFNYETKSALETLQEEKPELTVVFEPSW
Method: The NLRP3 inflammasome inhibitory activity of test compounds were evaluated CM the basis of the inhibitory activity of the IL-1β, production in THP1-Null cells (Product Number: thp-null, InvivoGen). […] A solution containing a test compound (20 μL/well) was added to test compound-setting wells. […] The supernatant of the culture was cryonically stored (set at −20° C.) until measurement of IL-1β.
`Cc1cc(Nc2nc(C(=O)NS(=O)(=O)N3CCOC(C(C)(C)O)CC3)co2)c(C)cc1F` (stereo not drawn) [US20230399319, Example 3-002] showed an IC50 of 49 nM. `CCOC[C@H]1OCCN(S(=O)(=O)NC(=O)c2coc(Nc3cc(C)c(F)cc3C)n2)C[C@@H]1OC` [US20230399319, Example 3-006] gave an IC50 of 30 nM. For `CCOC[C@@H]1OCCN(S(=O)(=O)NC(=O)c2coc(Nc3cc(C)c(F)cc3C)n2)C[C@H]1OC` [US20230399319, Example 3-007], the IC50 was 820 nM.
